Molecules are shown by their SMILES.

Assay [1] relates to leiomyoma. Briefly: Realtime PCR mRNA expression in leiomyoma, GnRHa therapy vs untreated. The assay is classed as in vivo, human. The text has this:
Tissues. Portions of leiomyoma and matched myometrium were collected from premenopausal women (N=6) who were scheduled to undergo hysterectomy for indications related to symptomatic leiomyomas. Three of the patients received GnRHa therapy for three months prior to surgery. […] To maintain a standard, all leiomyomas selected for this study were between 2 to 3 cm in diameter. […] The tissues were collected at the University of Florida affiliated Shands Hospital with prior approval obtained from the Institutional Review Board.
Quantitative RealTime PCR. Realtime PCR was utilized for verification of 10 differentially expressed and regulated genes identified in leiomyoma and myometrium as well as LSMC and MSMC from untreated and GnRHa-treated cohorts. The selection of these genes was based not only on their expression values (up or downregulation), but classification and biological functions important to leiomyoma growth and regression, regulation by ovarian steroids, GnRHa and TGF-β. They are IL-11, CITED2, Nur77, EGR3, TGIF, TIEG, p27, p57, GAS-1 and GPRK5 representing cytokines, transcription factors, cell cycle regulators and signal transduction.
Portions of leiomyoma and matched myometrium were collected from premenopausal women (N=27) who were scheduled to undergo hysterectomy for symptomatic uterine leiomyomas at the University of Florida affiliated Shands Hospital. Of these patients seven received GnRHa therapy for a period of three months prior to surgery. […] To maintain a standard, leiomyomas used in this study were 2 to 3 cm in diameter. Prior approval was obtained from the University of Florida Institutional Review Board for the experimental protocol of this study.
Portions of leiomyoma and matched myometrium were collected from premenopausal women (N=27) who were scheduled to undergo hysterectomy for symptomatic uterine leiomyomas at the University of Florida affiliated Shands Hospital. Of these patients, seven received GnRHa therapy for a period of three months prior to surgery. […] To maintain a standard, leiomyomas used in this study were 2 to 3 cm in diameter. Prior approval was obtained from the University of Florida Institutional Review Board for the experimental protocol of this study.
Realtime PCR. Briefly, total RNA was isolated from leiomyoma and matched myometrium using Trizol Reagent (INVITROGEN, Carlsbad, Calif.) and complimentary DNA was generated from 2 μg of total RNA using Taqman reverse transcription reagent. The newly synthesized cDNA was used for PCR performed in 96-well optical reaction plates with cDNA equivalent to 100 ng RNA in a volume of 50 μl reaction containing 1× Taqman Universal Master Mix, optimized concentrations of FAM-labeled probe and specific forward and reverse primer for FMOD selected from Assay on Demand (APPLIED BIOSYSTEMS). Controls included RNA subjected to RT-PCR without reverse transcriptase and PCR with water replacing cDNA.

The test system of assay [2] is leiomyoma. The conditions noted are these: GnRHa treated group compared to secretory phase tissues. The text has this: (§1) Western Blot Analysis and Immunohistochemical Localization. For immunoblotting, total protein was isolated from small portions of GnRHa-treated and untreated leiomyoma and myometrium as well as the GnRHa-treated and untreated cells as previously described (Ding, L et al. J Clin Endocrinol Metab, 2004, 89:5549-5557; Chegini, N et al. Mol Cell Endocrinol, 2003, 209:9-16). Following determination of the tissue homogenates and cell lysates protein content an equal amount of sample proteins were subjected to SDS-PAGE and transferred to polyvinyldiene difluoride (PVDF) membrane. The blots were incubated with anti-TIEG antibody, kindly provided by Dr. Thomas Spelsberg, Department of Biochemistry, Mayo Clinic, Rochester, Minn. (Johnsen, S A et al. Oncogene, 2002, 21:5783-90), TGIF, EGR3, p27, p57, Nur77 and Gas1 antibodies purchased from Santa Cruz Biochemical (Santa Cruz, Calif.), IL-11 antibodies purchased from R & D system (Minneapolis, Minn.) for 1 hr at room temperature. […]
(§2) Western Blot Analysis and Immunohistochemical Localization. […] The homogenates' protein contents were determined, and an equal amount was subjected to SDS-PAGE and transferred to polyvinyldiene difluoride membrane.

Assay [3] has as its system myometrium. The conditions noted are these: GnRHa treated group compared to secretory phase tissues.
From the text: as §1, §2

Setting [4] is: GnRHa therapy three months vs untreated.

`CCNC(=O)[C@@H]1CCCN1C(=O)[C@H](CCCNC(=N)N)NC(=O)[C@H](CC(C)C)NC(=O)[C@@H](CC(C)C)NC(=O)[C@H](Cc1ccc(O)cc1)NC(=O)[C@H](CO)NC(=O)[C@H](Cc1c[nH]c2ccccc12)NC(=O)[C@H](Cc1c[nH]cn1)NC(=O)[C@@H]1CCC(=O)N1` [GnRHa, leuprolide acetate]: the “FMOD mRNA expression in leiomyoma” value in assay [1] (GnRHa therapy three months (N=7) vs untreated) is on record as “significantly reduced”. In assay [1] (setting [4]), the “CCN2 mRNA expression in leiomyoma” value is listed as “alters”, the “CCN3 mRNA expression in leiomyoma” value is on record as “without affecting”, the “CCN4 mRNA expression in leiomyoma” value was “without affecting” and the “fibulin-1C mRNA expression in leiomyoma” value is given as “without affecting”. Further, in assay [1] (GnRHa therapy vs untreated), the “CITED2 expression in leiomyoma” value was “increased”, the “GPRK5 expression in leiomyoma” value is given as “inhibits”, the “IL-11 expression in leiomyoma” value is “suppressed” and the “Nur77 expression in leiomyoma” value is listed as “significant elevation”. In addition, the “FMOD immunoreactive intensity in leiomyoma” value in assay [2] is reported as “reduction”. For the same molecule, the “FMOD immunoreactive intensity in myometrium” value in assay [3] is “reduction”.

(Values after US20080300147A1, “Detection and Treatment of Fibrotic Disorders” (priority 2004, published 2008).)
